Test results taken from article PMC5928880 (Theranostics, 2018).
Where “and” joins values, the source holds several entries; their conditions need not be identical. Equal values may be shown once. Read-outs that look alike come from different tables or passages of the source. Blank lines part the entries; values can stand above or below the molecule they belong to.

Experiments:
[1] = test system: Jurkat leukemia cells; assay: Antiproliferation assay; format: cell-based, human; conditions: for inhibition at 50 µM / EC50: Jurkat; for inhibition at 50 µM: read-out: % inhibition at 50 µM, Jurkat; for EC50: read-out: Antiproliferative activity EC50, Jurkat; for Effect on growth of Jurkat cells: at 50 µM
[2] = test system: normal fibroblast WI-38 cells; assay: Antiproliferation assay; format: cell-based, human
[3] = test system: MCF-7 (breast cancer) cells; assay: Antiproliferation assay; format: cell-based, human
[4] = test system: NB4 cells; assay: Antiproliferation assay; format: cell-based, human
[5] = test system: MV4-11 cells; assay: Antiproliferation assay; format: cell-based, human
[6] = test system: SKNO-1 cells; assay: Antiproliferation assay; format: cell-based, human
[7] = test system: murine c-kit+ hematopoietic stem/progenitor cells (HSPC); assay: Colony-forming assay with hematopoietic stem/progenitor cells; format: cell-based, mouse; conditions: even at 250 nM
[8] = test system: Kasumi-1 and SKNO-1 cells; assay: Antiproliferation assay, R-E leukemia cells; format: cell-based, human; conditions: more active than Dex
[9] = test system: Kasumi-1 cells; assay: Antiproliferation assay; format: cell-based, human; conditions: read-out: Antiproliferative activity EC50, Kasumi-1
[10] = test system: SKNO-1 leukemia; assay: Subcutaneous xenograft mouse model of SKNO-1 leukemia; format: in vivo; conditions: i.p. 10 and 20 mg/kg/day, 10 injections in 14 days, NOD-SCID mice
[11] = ref [44], [45]; cited from earlier work
[12] = i.p. 100 mg/kg/day, 10 injections over 14 days
[13] = test system: SKNO-1 leukemia; conditions: 15 mg/kg/day i.p. injection for 4 days, ref [37], cited from earlier work
[14] = test system: Kasumi-1 cells; assay: Combination treatment of Kasumi-1 cells, combination index; format: cell-based, human; conditions: Dex in combination with cytarabine, CI < 1 synergism, listed as Dex
[15] = test system: myeloid leukemia cells; conditions: short course (3-7 days), high doses (20-30 mg/kg/day); ref [54]; cited from earlier work
[16] = Homo sapiens, WI-38, read-out: Antiproliferative activity EC50, WI-38
[17] = Homo sapiens, MCF7, read-out: Antiproliferative activity EC50, MCF-7
[18] = Homo sapiens, NB-4, read-out: Antiproliferative activity EC50, NB4
[19] = Homo sapiens, MV4-11, read-out: Antiproliferative activity EC50, MV4-11
[20] = Homo sapiens, SKNO-1, read-out: Antiproliferative activity EC50, SKNO-1

SMILES: CC=CC(=O)N(CC)c1ccccc1C (mixture of isomers) [Crotamiton, crotamiton]
inhibition at 50 µM ([1]; Homo sapiens): 11.2% | EC50 ([1]; Homo sapiens): > 50 µM

SMILES: CC(=O)c1ccc2c(c1)N(CCCN(C)C)c1ccccc1S2 [Acepromazine, acepromazine]
inhibition at 50 µM ([1]; Homo sapiens): 21% | EC50 ([1]; Homo sapiens): > 50 µM

SMILES: CO[C@H]1/C=C\C=C(/C)C(=O)NC2=CC(=O)C(NCCN(C)C)=C(C[C@@H](C)C[C@H](OC)[C@H](O)[C@@H](C)/C=C(\C)[C@@H]1OC(N)=O)C2=O [Alvespimycin, alvespimycin]
EC50 [2, 16]: 27 µM | EC50 [3, 17]: 5.2 µM | EC50 [4, 18]: 0.055 µM | EC50 ([1]; Homo sapiens): 1.6 µM | EC50 [5, 19]: 0.09 µM

SMILES: C[C@H]1C[C@H]2[C@@H]3CCC4=CC(=O)C=C[C@]4(C)[C@@]3(F)[C@@H](O)C[C@]2(C)[C@@]1(O)C(=O)CO [Betamethasone, betamethasone]
EC50 [2, 16]: > 50 µM | EC50 [3, 17]: > 50 µM | EC50 [6, 20]: 0.059 µM | EC50 [4, 18]: > 50 µM | inhibition at 50 µM ([1]; Homo sapiens): 6.9% | EC50 ([1]; Homo sapiens): > 50 µM | Effect on growth of Jurkat cells [1]: did not affect growth | Effect on colony-forming ability of murine HSPC [7]: did not significantly affect | EC50 [5, 19]: > 50 µM

SMILES: CN(C)/N=N/c1[nH]cnc1C(N)=O [Dacarbazine, dacarbazine]
EC50 ([1]; Homo sapiens): 15.2 µM

SMILES: C[C@@H]1C[C@H]2[C@@H]3CCC4=CC(=O)C=C[C@]4(C)[C@@]3(F)[C@@H](O)C[C@]2(C)[C@@]1(O)C(=O)COP(=O)(O)O [Dex-P, dexamethasone-21-phosphate]
Activity compared to parent compound Dex (fold more active) [8]: ~ 2 fold | EC50 ([2]; read-out: Antiproliferative activity EC50, WI-38, WI-38): > 50 µM | EC50 ([3]; read-out: Antiproliferative activity EC50, MCF-7, MCF-7): > 50 µM | EC50 [9]: 0.009 µM | EC50 ([6]; read-out: Antiproliferative activity EC50, SKNO-1, SKNO-1): 0.017 µM | EC50 ([4]; read-out: Antiproliferative activity EC50, NB4, NB4): > 50 µM | EC50 [1]: > 50 µM | Survival in SKNO-1 xenograft [10]: prolonged survivals | Tumor growth in SKNO-1 xenograft [10]: significant tumor growth inhibition | Effect on colony-forming ability of murine HSPC [7]: did not significantly affect | t1/2 in humans [11]: 4.7 h | EC50 ([5]; read-out: Antiproliferative activity EC50, MV4-11, MV4-11): > 50 µM | Toxicity to mice [12]: without overt toxicities

SMILES: C[C@@H]1C[C@H]2[C@@H]3CCC4=CC(=O)C=C[C@]4(C)[C@@]3(F)[C@@H](O)C[C@]2(C)[C@@]1(O)C(=O)CO [Dexamethasone, dexamethasone]
EC50 [2, 16]: > 50 µM | EC50 [3, 17]: > 50 µM | EC50 [6, 20]: 0.029 µM | EC50 [4, 18]: > 50 µM | In vivo activity (tumor burden) in mouse model of SKNO-1 leukemia [13]: did not reduce in vivo tumor burden | In vivo activity (tumor burden) in mouse model of SKNO-1 leukemia ([13]; listed as Dex): no in vivo activity | EC50 ([1]; Homo sapiens): > 50 µM | EC50 [5, 19]: > 50 µM | Combination index (CI) [14]: 0.13-0.75 and 0.13 to 0.75

SMILES: C[C@H]1C[C@@H]2[C@H]([C@@H](O)C[C@@]3(C)[C@H]2CC[C@]3(O)C(=O)CO)[C@@]2(C)C=CC(=O)C=C12 [methylprednisolone]
Differentiation of myeloid leukemia cells in children with AML [15]: induce differentiation of myeloid leukemia cells

More lines, main results first:

EC50 [1]: ~50 µM
SMILES: Cc1c(Nc2ncccc2C(=O)O)cccc1C(F)(F)F [Fluninxin]
EC50 [9]: 14.7 µM | Effect on growth of Jurkat cells [1]: inactive

EC50 [6, 20]: 0.41 µM | EC50 ([1]; Homo sapiens): > 50 µM
SMILES: C[C@]12CCC(=O)C=C1CC[C@@H]1[C@@H]2[C@@H](O)C[C@@]2(C)[C@H]1CC[C@]2(O)C(=O)CO [Hydrocortisone, hydrocortisone]

EC50 ([1]; Homo sapiens): > 50 µM
SMILES: COc1ccc2cc(CCC(C)=O)ccc2c1 [Nabumetone]
EC50 [9]: 18.5 µM | inhibition at 50 µM ([1]; Homo sapiens): -3.5% | Effect on growth of Jurkat cells [1]: inactive

EC50 [6, 20]: 0.15 µM | EC50 ([1]; Homo sapiens): > 50 µM
SMILES: C[C@]12C=CC(=O)C=C1CC[C@@H]1[C@@H]2[C@@H](O)C[C@@]2(C)[C@H]1CC[C@]2(O)C(=O)CO [Prednisolone, prednisolone]

EC50 ([1]; Homo sapiens): > 50 µM
SMILES: CCCNCC(O)COc1ccccc1C(=O)CCc1ccccc1 (centres unmarked) [Propafenone, propafenone]
inhibition at 50 µM ([1]; Homo sapiens): 2.5%

EC50 ([1]; Homo sapiens): > 50 µM
SMILES: COc1cc2ccc(=O)oc2cc1O [Scopoletin, scopoletin]
inhibition at 50 µM ([1]; Homo sapiens): 29.4%

EC50 [3, 17]: > 50 µM | EC50 ([1]; Homo sapiens): ~50 µM | EC50 [5, 19]: 0.52 µM
SMILES: C=CCNC1=C2C[C@@H](C)C[C@H](OC)[C@H](O)[C@@H](C)/C=C(\C)[C@H](OC(N)=O)[C@@H](OC)/C=C\C=C(/C)C(=O)NC(=CC1=O)C2=O [Tanespimycin, tanespimycin]
EC50 [2, 16]: > 50 µM | EC50 [4, 18]: 0.42 µM
